Reference: US20260240801A1, “COMPOSITIONS FOR TREATING PARKINSON’S DISEASE AND QUALITATIVE ASSESSMENT THEREOF” (InTrance Medical Systems Inc., priority 2023, published 2026)

How the values were obtained:
[1] = Stability study of Compound 1 (E920) on storage: purity by HPLC; type: physicochemical
Protocol: (§1) Compound 1 purity was determined by HPLC at two wavelengths 220 nm and 280 nm. Identification of Compound 1 was carried out by IR and NMR methods (^1H NMR, ^13C NMR). The residual solvents methanol and dichloromethane (DCM) were determined by gas chromatography (GC). Residual water content was determined by Karl Fisher analysis. Thermogravimetric analysis (TGA) of Compound 1 was also carried out with hold time of 10 minutes at final temperature of 105° C.
• Detector: UV/Vis or Diode Array Detector • Wavelength: Signal A: 280 nm, Bandwidth: 4 nm, Reference: OFF • Signal B: 220 nm, Bandwidth: 4 nm, Reference: OFF • Column: SunFire C18 Column (150×4.6 mm, 3.5 um) • Mobile Phase A: 0.06% TFA in H2O • Mobile Phase B: 0.04% TFA in (MeOH:H2O, 80:20)
• Autosampler Temperature: 6° C. • Column Temperature: 40° C. • Flow Rate: 1.0 mL/min • Injection Volume: 5 μL • Run Time: 30 min
• Accurately weigh approximately 10.0 mg of test sample into a 20 mL volumetric flask. • Dilute to volume with diluent and mix well. (0.5 mg/mL).
• Integrate all peaks≥0.05% a/a, not present in the blank solution. • ECA—Analytical Method—E920H2—for standard qualification
(§2) The stability profile of Compound 1 (Eurofins CDMO Alphora Inc. code: E920) was being evaluated over a period of 6 months under Long Term storage condition of <−20° C. and 6 months under accelerated condition of 25±2° C./60%±5% RH; and at intermediate storage conditions of 5±3° C. Additional samples are stored at each storage conditions to cover the stability studies up to 12 months, after 6 months satisfactory stability results. Attributes being tested include: description of composition, purity by HPLC, identification by HPLC and water content by Karl Fischer (KF) Method. This study is conducted in compliance with ICH Q1A (R2) and Alphora Standard Operating Procedure SOP LC027.
(§3) The stability profile of Compound 1 (Eurofins CDMO Alphora Inc. code: E920) was being evaluated over a period of up to 12 months under Long Term storage condition of <−20° C. and up to 12 months under accelerated condition of 25±2° C./60%±5% RH; and store only at intermediate storage conditions of 5±3° C. Attributes being tested include: description of composition, purity by HPLC, identification by HPLC and water content by Karl Fischer (KF) Method. This study is conducted in compliance with ICH Q1A (R2) and Alphora Standard Operating Procedure SOP LC027.

[2] = Stability study of Compound 1 (E920) on storage: water content by Karl Fischer; type: physicochemical
Protocol: as §1, §2, §3

In the case of `C[C@@](Cc1ccc(O)c(O)c1)(N/N=C/c1cc(O)c(O)c([N+](=O)[O-])c1)C(=O)O` [Compound 1, (2s)-2-[(E)-2-[(3,4-dihydroxy-5-nitrophenyl)methylidene]hydrazin-1-yl]-3-(3,4-dihydroxyphenyl)-2-methylpropanoic acid], the “% Purity at 220 nm by HPLC” value ([1]; 25° C./60% RH, 1 M) was 95.7%, the “% Purity at 280 nm by HPLC” value ([1]; 25° C./60% RH, 1 M) was 96.2% and the “% a/a Purity at 220 nm by HPLC” value ([1]; 25° C./60% RH, 1 M) was 95.7 % a/a. For the same molecule, the “% a/a Purity at 280 nm by HPLC” value ([1]; 25° C./60% RH, 1 M) was 96.2 % a/a, the “% Purity at 220 nm by HPLC” value ([1]; 25° C./60% RH, 3 M) was 93.9% and the “% Purity at 280 nm by HPLC” value ([1]; 25° C./60% RH, 3 M) was 94.9%. For the same molecule, the “% a/a Purity at 220 nm by HPLC” value ([1]; 25° C./60% RH, 3 M) was 93.9 % a/a, the “% a/a Purity at 280 nm by HPLC” value ([1]; 25° C./60% RH, 3 M) was 94.9 % a/a and the “% a/a Purity at 220 nm by HPLC” value ([1]; 25° C./60% RH, 6 M) was 94.8 % a/a. The “% a/a Purity at 280 nm by HPLC” value ([1]; 25° C./60% RH, 6 M) was 95.3 % a/a, the “% a/a Purity at 220 nm by HPLC” value ([1]; 25° C./60% RH, 12 M) was 93.2 % a/a and the “% a/a Purity at 280 nm by HPLC” value ([1]; 25° C./60% RH, 12 M) was 95.1 % a/a. The “% Purity at 220 nm by HPLC” value ([1]; Initial) was 95.4%, the “% Purity at 280 nm by HPLC” value ([1]; Initial) was 96.1% and the “% a/a Purity at 220 nm by HPLC” value ([1]; Initial (12-month study)) was 95.4 % a/a. For the same molecule, the “% a/a Purity at 280 nm by HPLC” value ([1]; Initial (12-month study)) was 96.1 % a/a, the Three-month stability ([1]; −20° C. and 25° C./60% RH) was “satisfactory” and the Twelve-month stability ([1]; −20° C. and 25° C./60% RH) was “satisfactory”. The “% Purity at 220 nm by HPLC” value ([1]; −20° C., 1 M) was 95.8%, the “% Purity at 280 nm by HPLC” value ([1]; −20° C., 1 M) was 96.0% and the “% a/a Purity at 220 nm by HPLC” value ([1]; −20° C., 1 M) was 95.8 % a/a. For the same molecule, the “% a/a Purity at 280 nm by HPLC” value ([1]; −20° C., 1 M) was 96.0 % a/a, the “% Purity at 220 nm by HPLC” value ([1]; −20° C., 3 M) was 94.3% and the “% Purity at 280 nm by HPLC” value ([1]; −20° C., 3 M) was 95.2%. For the same molecule, the “% a/a Purity at 220 nm by HPLC” value ([1]; −20° C., 3 M) was 94.3 % a/a, the “% a/a Purity at 280 nm by HPLC” value ([1]; −20° C., 3 M) was 95.2 % a/a and the “% a/a Purity at 220 nm by HPLC” value ([1]; −20° C., 6 M) was 96.5% a/a. The “% a/a Purity at 280 nm by HPLC” value ([1]; −20° C., 6 M) was 96.1 % a/a, the “% a/a Purity at 220 nm by HPLC” value ([1]; −20° C., 12 M) was 95.9 % a/a and the “% a/a Purity at 280 nm by HPLC” value ([1]; −20° C., 12 M) was 96.6 % a/a. For the same molecule, the “% residual water content by KF” value ([2]; 25° C./60% RH, 1 M) was 1.63%, the “% residual water content by KF” value ([2]; 25° C./60% RH, 1 M (12-month study)) was 1.63% and the “% residual water content by KF” value ([2]; 25° C./60% RH, 3 M) was 2.05%. The “% residual water content by KF” value ([2]; 25° C./60% RH, 3 M (12-month study)) was 2.05%, the “% residual water content by KF” value ([2]; 25° C./60% RH, 6 M) was 3.55% and the “% residual water content by KF” value ([2]; 25° C./60% RH, 12 M) was 4.02%. For the same molecule, the “% residual water content by KF” value ([2]; Initial) was 1.51%, the “% residual water content by KF” value ([2]; Initial (12-month study)) was 1.51% and the “% residual water content by KF” value ([2]; −20° C., 1 M) was 1.67%. The “% residual water content by KF” value ([2]; −20° C., 1 M (12-month study)) was 1.67%, the “% residual water content by KF” value ([2]; −20° C., 3 M) was 1.96% and the “% residual water content by KF” value ([2]; −20° C., 3 M (12-month study)) was 1.96%. For the same molecule, the “% residual water content by KF” value ([2]; −20° C., 6 M) was 3.35% and the “% residual water content by KF” value ([2]; −20° C., 12 M) was 4.08%.
